Reference: patent publication US10759785B2, “Compounds” (ENTERPRISE THERAPEUTICS LIMITED, priority 2016, dated 2020)
Where a name gives a salt, the structure may show the parent alone.

Assay: Hepatic stability (human cryopreserved hepatocytes)
Type: in vitro ADME
Details: 1×10^6 cells/mL, 37° C.; for Averages. Hep Half Life Human: 1 μM test compound; for half-life at 1 μM: cryopreserved hepatocytes, pH 7.4, 1 μM test compound, read-out: Averages. Hep Half Life Human
Experimental: Example 29—Hepatic Stability
Cryopreserved hepatocytes (rat and human) were obtained from Bioreclamation. Test compound stock solutions in DMSO (10 mM) were diluted with DMSO to 4 mM. Further dilution was completed to achieve a 100 μM stock (5 μL of 4 mM in 195 μL of 50:50 DMSO:hepatocyte buffer). Final test compound concentration in incubation was 1 μM. The following probe substrates were used: testosterone and carbamazepine at a final incubation concentration of 1 μM. Hepatocyte buffer was prepared (Williams E media containing phenol red and Glutamax™, 15 mM HEPES, warmed to 37° C., pH7.4 with NaOH). Cells were removed from liquid nitrogen, thawed in a waterbath, decanted into 50 mL of pre-warmed Cryopreserved Hepatocyte Recovery Media (LifeTechnologies) and centrifuged. Supernatant fraction was removed, cells were re-suspended in hepatocyte buffer and counted by trypan blue exclusion. Cell viability of >80% was required for all assays. Cells were re-suspended to 1×10^6/mL and 198 μL cell suspension added to each 96-well. 2 μL of 100 μM compound stock solution was added to relevant wells to initiate the incubation. A no cell control and two replicates of each test compound was included in every assay. Cells were incubated at 37° C., on a shaker set at 300 rpm. At each timepoint (0, 15, 30, 45, 60, 90 min) 20 μL of sample was removed from the 96-well and added to 80 μL of quench solution (acetonitrile containing 0.1% formic acid and imipramine/labetalol, 200 nM). Samples were diluted 1:1 with water using the Janus Robot and analysed by LC-MS/MS.

SMILES	Averages. Hep Half Life Human [h]	half-life at 1 μM [h]
CCn1c(CNC(=O)c2nc(Br)cnc2N)[n+](CCOCCOCCO)c2ccc(OC)cc21.O=C[O-] [Example 4, 2-{[(3-amino-6-bromopyrazin-2-yl)formamido]methyl}-1-ethyl-3-{2-[2-(2-hydroxyethoxy)ethoxy]ethyl}-6-methoxy-1H-1,3-benzodiazol-3-ium formate]	4	
CCn1c(CNC(=O)c2nc(Br)cnc2N)[n+](C)c2ccc(Cl)cc21.O=CO.O=C[O-] [Example 11, 2-{[(3-amino-6-bromopyrazin-2-yl)formamido]methyl}-6-chloro-1-ethyl-3-methyl-1H-1,3-benzodiazol-3-ium formic acid formate]	4	
CCn1c(CNC(=O)c2nc(Br)cnc2N)[n+](CC)c2ccc(OC)cc21.O=C[O-] [Example 2, 2-{[(3-amino-6-bromopyrazin-2-yl)formamido]methyl}-1,3-diethyl-6-methoxy-1H-1,3-benzodiazol-3-ium formate]		1.5
CCn1c(CNC(=O)c2nc(Br)cnc2N)[n+](C)c2ccc(C(F)(F)F)cc21.[I-] [Example 13, 2-{[(3-amino-6-bromopyrazin-2-yl)formamido]methyl}-1-ethyl-3-methyl-6-(trifluoromethyl)-1H-1,3-benzodiazol-3-ium iodide]	4	
CCn1c(CNC(=O)c2nc(Br)cnc2N)[n+](CC)c2ccc(-c3cnn(C4CCN(C(=O)OC(C)(C)C)CC4)c3)cc21.[I-] [Example 20, 2-{[(3-amino-6-bromopyrazin-2-yl)formamido]methyl}-6-(1-{1-[(tert-butoxy)carbonyl]piperidin-4-yl}-1H-pyrazol-4-yl)-1,3-diethyl-1H-1,3-benzodiazol-3-ium iodide]		1.17
CCn1c(CNC(=O)c2nc(Br)cnc2N)[n+](C)c2ccc(OC(F)(F)F)cc21.O=C[O-] [Example 14, 2-{[(3-amino-6-bromopyrazin-2-yl)formamido]methyl}-1-ethyl-3-methyl-6-(trifluoromethoxy)-1H-1,3-benzodiazol-3-ium formate]		3.42
CCn1c(CNC(=O)c2nc(Br)cnc2N)[n+](CC)c2ccc(OCCNC(=O)OC(C)(C)C)cc21.O=C[O-] [Example 24, 2-{[(3-amino-6-bromopyrazin-2-yl)formamido]methyl}-6-(2-{[(tert-butoxy)carbonyl]amino}ethoxy)-1,3-diethyl-1H-1,3-benzodiazol-3-ium formate]		1.22
CCn1c(CNC(=O)c2nc(C)cnc2N)[n+](C)c2ccc(OC)cc21.[I-] [Example 7, 2-{[(3-amino-6-methylpyrazin-2-yl)formamido]methyl}-1-ethyl-6-methoxy-3-methyl-1H-1,3-benzodiazol-3-ium iodide]		2.15
CCn1c(CNC(=O)c2nc(Cl)cnc2N)[n+](C)c2ccc(OC)cc21.[I-] [Example 5, 2-{[(3-amino-6-chloropyrazin-2-yl)formamido]methyl}-1-ethyl-6-methoxy-3-methyl-1H-1,3-benzodiazol-3-ium iodide]		1.13
CCn1c(CNC(=O)c2nc(Br)cnc2N)[n+](CCO)c2ccc(OC)cc21.O=C[O-] [Example 3, 2-{[(3-amino-6-bromopyrazin-2-yl)formamido]methyl}-1-ethyl-3-(2-hydroxyethyl)-6-methoxy-1H-1,3-benzodiazol-3-ium formate]	4	

Now from value to compound:

Averages. Hep Half Life Human [h]	half-life at 1 μM [h]	SMILES
	1.1	CCn1c(CNC(=O)c2nc(Br)cnc2N)[n+](CC)c2ccc(-c3cnn(C4CCNCC4)c3)cc21.Cl.[I-] [Example 21, 2-{[(3-amino-6-bromopyrazin-2-yl)formamido]methyl}-1,3-diethyl-6-[1-(piperidin-4-yl)-1H-pyrazol-4-yl]-1H-1,3-benzodiazol-3-ium hydrochloride iodide]
	1.2	CCn1c(CNC(=O)c2nc(Br)cnc2N)[n+](CC)c2ccc(-c3cnn(C4CCN(C[C@H](O)[C@@H](O)[C@H](O)[C@H](O)CO)CC4)c3)cc21.O=CO.[Cl-] [Example 23, 2-{[(3-amino-6-bromopyrazin-2-yl)formamido]methyl}-1,3-diethyl-6-(1-{1-[(2S,3R,4R,5R)-2,3,4,5,6-pentahydroxyhexyl]piperidin-4-yl}-1H-pyrazol-4-yl)-1H-1,3-benzodiazol-3-ium formic acid chloride]
	1.68	CCn1c(CNC(=O)c2nc(Br)cnc2N)[n+](CC)c2ccc(C(=O)N[C@@H]3CCOC3=O)cc21 [Example 17, 2-{[(3-amino-6-bromopyrazin-2-yl)formamido]methyl}-1,3-diethyl-6-{[(3R)-2-oxooxolan-3-yl]carbamoyl}-1H-1,3-benzodiazol-3-ium formate]
	2.57	CCn1c(CNC(=O)c2nc(Br)cnc2N)[n+](CC)c2ccc(C(=O)OC)cc21.[I-] [Example 15, 2-{[(3-amino-6-bromopyrazin-2-yl)formamido]methyl}-1,3-diethyl-6-(methoxycarbonyl)-1H-1,3-benzodiazol-3-ium iodide]
	2.28	CCn1c(CNC(=O)c2nc(Br)cnc2N)[n+](CC)c2ccc(C(=O)N[C@H]3CCOC3=O)cc21 [Example 18, 2-{[(3-amino-6-bromopyrazin-2-yl)formamido]methyl}-1,3-diethyl-6-{[(3S)-2-oxooxolan-3-yl]carbamoyl}-1H-1,3-benzodiazol-3-ium formate]
4		CCn1c(CNC(=O)c2nc(Br)cnc2N)[n+](Cc2ccccc2)c2ccc(C(F)(F)F)cc21.O=C[O-] [Example 19, 2-{[(3-Amino-6-bromopyrazin-2-yl)formamido]methyl}-3-benzyl-1-ethyl-6-(trifluoromethyl)-1H-1,3-benzodiazol-3-ium formate]
	1.12	CCn1c(CNC(=O)c2nc(Br)cnc2N)[n+](CC)c2ccc(-c3cnn(C4CCN(C(=N)N)CC4)c3)cc21.O=CO.O=C[O-] [Example 22, 2-{[(3-amino-6-bromopyrazin-2-yl)formamido]methyl}-6-[1-(1-carbamimidoylpiperidin-4-yl)-1H-pyrazol-4-yl]-1,3-diethyl-1H-1,3-benzodiazol-3-ium formic acid formate]
	> 4	CCn1c(CNC(=O)c2nc(Br)cnc2N)[n+](CC)c2ccc(OCCN)cc21.Cl.[Cl-] [Example 25, 2-{[(3-Amino-6-bromopyrazin-2-yl)formamido]methyl}-6-(2-aminoethoxy)-1,3-diethyl-1H-1,3-benzodiazol-3-ium hydrochloride chloride]
	3.87	CCn1c(CNC(=O)c2nc(C#N)cnc2N)[n+](CC)c2ccc(OC)cc21 [Example 26, 2-{[(3-amino-6-cyanopyrazin-2-yl)formamido]methyl}-1,3-diethyl-6-methoxy-1H-1,3-benzodiazol-3-ium formate]
